Data on 23 compounds can be found in patent US9688676B2, “Tyrosine kinase inhibitors” (PRINCIPIA BIOPHARMA INC., priority 2015, dated 2017).

SMILES strings stand for the structures.

In the assay the target is BTK (Homo sapiens (Human), UniProt Q06187). The experiment in a line: BTK enzymatic activity assay (Caliper-based kinase assay). The format is biochemical. Particulars: human recombinant BTK 0.5 nM, ATP 16 μM, 3 h room temperature. As for the experimental part: A Caliper-based kinase assay (Caliper Life Sciences, Hopkinton, Mass.) was used to measure inhibition of BTK kinase activity of a compound of the present disclosure. […] The reaction was then terminated with EDTA, final concentration 20 mM and the phosphorylated reaction product was quantified on a Caliper Desktop Profiler (Caliper LabChip 3000). […] This value is presented as the IC50.
Chain of BTK (Q06187 whole entry): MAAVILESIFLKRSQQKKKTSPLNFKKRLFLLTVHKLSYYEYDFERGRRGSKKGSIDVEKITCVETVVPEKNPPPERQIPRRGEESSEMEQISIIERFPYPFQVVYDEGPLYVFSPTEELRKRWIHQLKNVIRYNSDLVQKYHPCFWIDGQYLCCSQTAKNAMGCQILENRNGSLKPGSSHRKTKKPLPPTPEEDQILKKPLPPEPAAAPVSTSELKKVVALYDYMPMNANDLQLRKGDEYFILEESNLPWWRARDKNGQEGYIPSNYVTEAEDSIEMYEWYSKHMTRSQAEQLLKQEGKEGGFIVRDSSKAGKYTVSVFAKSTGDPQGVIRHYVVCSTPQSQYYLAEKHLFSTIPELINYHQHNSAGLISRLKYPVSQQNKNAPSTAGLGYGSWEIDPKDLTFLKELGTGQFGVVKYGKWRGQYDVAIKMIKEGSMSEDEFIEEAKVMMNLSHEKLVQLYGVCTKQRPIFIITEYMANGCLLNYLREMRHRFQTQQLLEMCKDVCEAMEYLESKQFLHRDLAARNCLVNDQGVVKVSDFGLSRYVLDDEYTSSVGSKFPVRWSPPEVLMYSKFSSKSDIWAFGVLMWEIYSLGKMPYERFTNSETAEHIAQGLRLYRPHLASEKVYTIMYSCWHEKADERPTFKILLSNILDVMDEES

By IC50 is commonly meant the concentration that gives 50% inhibition. For `N#CC(=CC(CCO)CCO)C(=O)N1CCC[C@@H](n2c(=O)n(-c3ccc(Oc4ccccc4)cc3)c3c(N)nccc32)C1` [Compound 11, (R)-2-(3-(4-amino-2-oxo-3-(4-phenoxyphenyl)-2,3-dihydro-1H-imidazo[4,5-c]pyridin-1-yl)piperidine-1-carbonyl)-6-hydroxy-4-(2-hydroxyethyl)hex-2-enenitrile], the IC50 turned out to be 78.6 nM.

With `C[C@@H]1CN(C(C)(C)C=C(C#N)C(=O)N2CCC[C@@H](n3c(=O)n(-c4ccc(Oc5ccccc5)cc4)c4c(N)nccc43)C2)C[C@H](C)N1` [Compound 19, 2-((R)-3-(4-amino-2-oxo-3-(4-phenoxyphenyl)-2,3-dihydro-1H-imidazo[4,5-c]pyridin-1-yl)piperidine-1-carbonyl)-4-((3R,5S)-3,5-dimethylpiperazin-1-yl)-4-methylpent-2-enenitrile], the IC50 came to 7.8 nM. Then `N#CC(=CC1CCSCC1)C(=O)N1CCC[C@@H](n2c(=O)n(-c3ccc(Oc4ccccc4)cc3)c3c(N)nccc32)C1` [Compound 20, (R)-2-(3-(4-amino-2-oxo-3-(4-phenoxyphenyl)-2,3-dihydro-1H-imidazo[4,5-c]pyridin-1-yl)piperidine-1-carbonyl)-3-(tetrahydro-2H-thiopyran-4-yl)acrylonitrile], with 14.5 nM; and `CC(C)(C=C(C#N)C(=O)N1CCC[C@@H](n2c(=O)n(-c3ccc(Oc4ccccc4)cc3)c3c(N)nccc32)C1)N1CCNC(=O)C1` [Compound 21, (R)-2-(3-(4-amino-2-oxo-3-(4-phenoxyphenyl)-2,3-dihydro-1H-imidazo[4,5-c]pyridin-1-yl)piperidine-1-carbonyl)-4-methyl-4-(3-oxopiperazin-1-yl)pent-2-enenitrile], with 4.6 nM. For the compound `C=CC(=O)N1CCC[C@H]1Cn1c(=O)n(-c2ccc(Oc3ccccc3)cc2)c2c(N)nccc21` [Compound 22, (S)-1-((1-acryloylpyrrolidin-2-yl)methyl)-4-amino-3-(4-phenoxyphenyl)-1H-imidazo[4,5-c]pyridin-2(3H)-one], the half-inhibitory concentration (IC50) stood at 4.8 nM.

Turning to `CC#CC(=O)N1CCC[C@H]1Cn1c(=O)n(-c2ccc(Oc3ccccc3)cc2)c2c(N)nccc21` [Compound 23, (S)-4-amino-1-((1-(but-2-ynoyl)pyrrolidin-2-yl)methyl)-3-(4-phenoxyphenyl)-1H-imidazo[4,5-c]pyridin-2(3H)-one], the 50% inhibitory concentration (IC50) came out at 25.9 nM.

In the case of `CC(C)(C=C(C#N)C(=O)N1CCC[C@@H](n2c(=O)n(-c3ccc(Oc4c(F)cccc4F)cc3)c3c(N)nccc32)C1)N1CCN(C2COC2)CC1` [Compound 24, (R)-2-(3-(4-amino-3-(4-(2,6-difluorophenoxy)phenyl)-2-oxo-2,3-dihydro-1H-imidazo[4,5-c]pyridin-1-yl)piperidine-1-carbonyl)-4-methyl-4-(4-(oxetan-3-yl)piperazin-1-yl)pent-2-enenitrile], the IC50 is 4.7 nM. The figure for `CC(C)(C=C(C#N)C(=O)N1CCC[C@@H](n2c(=O)n(-c3ccc(Oc4cccc(F)c4F)cc3)c3c(N)nccc32)C1)N1CCN(C2COC2)CC1` [Compound 25, (R)-2-(3-(4-amino-3-(4-(2,3-difluorophenoxy)phenyl)-2-oxo-2,3-dihydro-1H-imidazo[4,5-c]pyridin-1-yl)piperidine-1-carbonyl)-4-methyl-4-(4-(oxetan-3-yl)piperazin-1-yl)pent-2-enenitrile] is 5.4 nM.

Regarding `CC(C)(C=C(C#N)C(=O)N1CCC[C@@H](n2c(=O)n(-c3ccc(Oc4ccccc4)c(F)c3)c3c(N)nccc32)C1)N1CCN(C2COC2)CC1` [Compound 26, (R)-2-(3-(4-amino-3-(3-fluoro-4-phenoxyphenyl)-2-oxo-2,3-dihydro-1H-imidazo[4,5-c]pyridin-1-yl)piperidine-1-carbonyl)-4-methyl-4-(4-(oxetan-3-yl)piperazin-1-yl)pent-2-enenitrile], the IC50 worked out at 3.5 nM.

As for `CC(C)(C=C(C#N)C(=O)N1CCC[C@@H](n2c(=O)n(-c3ccc(Oc4ccccc4)cc3F)c3c(N)nccc32)C1)N1CCN(C2COC2)CC1` [Compound 27, (R)-2-(3-(4-amino-3-(2-fluoro-4-phenoxyphenyl)-2-oxo-2,3-dihydro-1H-imidazo[4,5-c]pyridin-1-yl)piperidine-1-carbonyl)-4-methyl-4-(4-(oxetan-3-yl)piperazin-1-yl)pent-2-enenitrile], the IC50 worked out at 4.9 nM.

As for `Cc1cc(-n2c(=O)n([C@@H]3CCCN(C(=O)C(C#N)=CC(C)(C)N4CCN(C5COC5)CC4)C3)c3ccnc(N)c32)ccc1Oc1ccccc1` [Compound 28, (R)-2-(3-(4-amino-3-(3-methyl-4-phenoxyphenyl)-2-oxo-2,3-dihydro-1H-imidazo[4,5-c]pyridin-1-yl)piperidine-1-carbonyl)-4-methyl-4-(4-(oxetan-3-yl)piperazin-1-yl)pent-2-enenitrile], the IC50 worked out at 4.8 nM. Then `CC(C)(C=C(C#N)C(=O)N1CCC[C@@H](n2c(=O)n(-c3ccc(Oc4ccccc4)cc3)c3c(N)nccc32)C1)N1CCn2cnnc2C1` [Compound 29, (R)-2-(3-(4-amino-2-oxo-3-(4-phenoxyphenyl)-2,3-dihydro-1H-imidazo[4,5-c]pyridin-1-yl)piperidine-1-carbonyl)-4-(5,6-dihydro-[1,2,4]triazolo[4,3-a]pyrazin-7(8H)-yl)-4-methylpent-2-enenitrile], with 1.8 nM; and `CC(C)(C=C(C#N)C(=O)N1CCC[C@@H](n2c(=O)n(-c3ccc(Oc4ccccc4)cc3)c3c(N)nccc32)C1)N1CCN(C2(C)COC2)CC1` [Compound 30, (R)-2-(3-(4-amino-2-oxo-3-(4-phenoxyphenyl)-2,3-dihydro-1H-imidazo[4,5-c]pyridin-1-yl)piperidine-1-carbonyl)-4-methyl-4-(4-(3-methyloxetan-3-yl)piperazin-1-yl)pent-2-enenitrile], with 1.5 nM; and `CC(C)(C=C(C#N)C(=O)N1CCC[C@@H](n2c(=O)n(-c3ccc(Oc4ccccc4)cc3)c3c(N)ncnc32)C1)N1CCN(C2COC2)CC1` [Compound 31, (R)-2-(3-(6-amino-8-oxo-7-(4-phenoxyphenyl)-7H-purin-9(8H)-yl)piperidine-1-carbonyl)-4-methyl-4-(4-(oxetan-3-yl)piperazin-1-yl)pent-2-enenitrile], with 3.7 nM. Then `CC1(C=C(C#N)C(=O)N2CCC[C@@H](n3c(=O)n(-c4ccc(Oc5ccccc5)cc4)c4c(N)ncnc43)C2)CCN(C2COC2)CC1` [Compound 32, (R)-2-(3-(6-amino-8-oxo-7-(4-phenoxyphenyl)-7H-purin-9(8H)-yl)piperidine-1-carbonyl)-3-(4-methyl-1-(oxetan-3-yl)piperidin-4-yl)acrylonitrile], with 2.9 nM.

For `CN1CCN(C(C)(C)C=C(C#N)C(=O)N2CCC[C@H]2Cn2c(=O)n(-c3ccc(Oc4ccccc4)cc3)c3c(N)nccc32)CC1` [Compound 34, (S)-2-(2-((4-amino-2-oxo-3-(4-phenoxyphenyl)-2,3-dihydro-1H-imidazo[4,5-c]pyridin-1-yl)methyl)pyrrolidine-1-carbonyl)-4-methyl-4-(4-methylpiperazin-1-yl)pent-2-enenitrile], the IC50 came to 23.1 nM.

Turning to `CN1CCN(C(C)(C)C=C(C#N)C(=O)N2CCC[C@H]2Cn2c(=O)n(-c3ccc(Oc4ccccc4)cc3)c3c(N)nccc32)CC1=O` [Compound 35, (S)-2-(2-((4-amino-2-oxo-3-(4-phenoxyphenyl)-2,3-dihydro-1H-imidazo[4,5-c]pyridin-1-yl)methyl)pyrrolidine-1-carbonyl)-4-methyl-4-(4-methyl-3-oxopiperazin-1-yl)pent-2-enenitrile], the IC50 was 26.2 nM.

In the case of `CN(C1COC1)C(C)(C)C=C(C#N)C(=O)N1CCC[C@H]1Cn1c(=O)n(-c2ccc(Oc3ccccc3)cc2)c2c(N)nccc21` [Compound 36, (S)-2-(2-((4-amino-2-oxo-3-(4-phenoxyphenyl)-2,3-dihydro-1H-imidazo[4,5-c]pyridin-1-yl)methyl)pyrrolidine-1-carbonyl)-4-methyl-4-(methyl(oxetan-3-yl)amino)pent-2-enenitrile], the IC50 was 15.7 nM. The figure for `CC1(C=C(C#N)C(=O)N2CCC[C@@H](n3c(=O)n(-c4ccc(Oc5ccccc5)cc4)c4c(N)nccc43)C2)CCOCC1` [Compound 37, (R)-2-(3-(4-amino-2-oxo-3-(4-phenoxyphenyl)-2,3-dihydro-1H-imidazo[4,5-c]pyridin-1-yl)piperidine-1-carbonyl)-3-(4-methyltetrahydro-2H-pyran-4-yl)acrylonitrile] is 4.3 nM; for `CC(C)(C=C(C#N)C(=O)N1CCC[C@@H](n2c(=O)n(-c3ccc(Oc4ccccc4F)cc3)c3c(N)nccc32)C1)N1CCN(C2COC2)CC1` [Compound 38, (R)-2-(3-(4-amino-3-(4-(2-fluorophenoxy)phenyl)-2-oxo-2,3-dihydro-1H-imidazo[4,5-c]pyridin-1-yl)piperidine-1-carbonyl)-4-methyl-4-(4-(oxetan-3-yl)piperazin-1-yl)pent-2-enenitrile] it is 5.7 nM; for `N#CC(=CC1CC[S+]([O-])CC1)C(=O)N1CCC[C@@H](n2c(=O)n(-c3ccc(Oc4ccccc4)cc3)c3c(N)nccc32)C1` (stereo partly drawn) [Compound 39, (R)-2-(3-(4-amino-2-oxo-3-(4-phenoxyphenyl)-2,3-dihydro-1H-imidazo[4,5-c]pyridin-1-yl)piperidine-1-carbonyl)-3-(1-oxidotetrahydro-2H-thiopyran-4-yl)acrylonitrile] it is 5.3 nM.

With `CCN1CCN(C(C)(C)C=C(C#N)C(=O)N2CCC[C@@H](n3c(=O)n(-c4ccc(Oc5ccccc5)cc4)c4c(N)nccc43)C2)CC1=O` [Compound 40, (R)-2-(3-(4-amino-2-oxo-3-(4-phenoxyphenyl)-2,3-dihydro-1H-imidazo[4,5-c]pyridin-1-yl)piperidine-1-carbonyl)-4-(4-ethyl-3-oxopiperazin-1-yl)-4-methylpent-2-enenitrile], the IC50 turned out to be 5.7 nM. As to `N#CC(=CC1CC1)C(=O)N1CCC[C@@H](n2c(=O)n(-c3ccc(Oc4ccccc4)cc3)c3c(N)nccc32)C1` [Compound 41, (R)-2-(3-(4-amino-2-oxo-3-(4-phenoxyphenyl)-2,3-dihydro-1H-imidazo[4,5-c]pyridin-1-yl)piperidine-1-carbonyl)-3-cyclopropylacrylonitrile], the IC50 amounted to 3.1 nM.
